Experimental data: paper PMC9065678, “BI 1015550 is a PDE4B Inhibitor and a Clinical Drug Candidate for the Oral Treatment of Idiopathic Pulmonary Fibrosis” (Frontiers in Pharmacology, 2022)
Marks after values point to notes of the source that are not given here.

Assays:
PDE4A = target: T1, PDE4A (Homo sapiens, UniProt P27815); assay: Recombinant PDE activity, scintillation proximity assay: PDE4A; assay type: biochemical; settings: substrate [3H]cAMP, means from n independent experiments
T1 construct: PDE4A (NG_029594, AA 156–886); made in house; host or cells: SF9 insect cells (baculovirus, Bac-To-Bac, pFastbac)
T1 sequence (P27815 156-886): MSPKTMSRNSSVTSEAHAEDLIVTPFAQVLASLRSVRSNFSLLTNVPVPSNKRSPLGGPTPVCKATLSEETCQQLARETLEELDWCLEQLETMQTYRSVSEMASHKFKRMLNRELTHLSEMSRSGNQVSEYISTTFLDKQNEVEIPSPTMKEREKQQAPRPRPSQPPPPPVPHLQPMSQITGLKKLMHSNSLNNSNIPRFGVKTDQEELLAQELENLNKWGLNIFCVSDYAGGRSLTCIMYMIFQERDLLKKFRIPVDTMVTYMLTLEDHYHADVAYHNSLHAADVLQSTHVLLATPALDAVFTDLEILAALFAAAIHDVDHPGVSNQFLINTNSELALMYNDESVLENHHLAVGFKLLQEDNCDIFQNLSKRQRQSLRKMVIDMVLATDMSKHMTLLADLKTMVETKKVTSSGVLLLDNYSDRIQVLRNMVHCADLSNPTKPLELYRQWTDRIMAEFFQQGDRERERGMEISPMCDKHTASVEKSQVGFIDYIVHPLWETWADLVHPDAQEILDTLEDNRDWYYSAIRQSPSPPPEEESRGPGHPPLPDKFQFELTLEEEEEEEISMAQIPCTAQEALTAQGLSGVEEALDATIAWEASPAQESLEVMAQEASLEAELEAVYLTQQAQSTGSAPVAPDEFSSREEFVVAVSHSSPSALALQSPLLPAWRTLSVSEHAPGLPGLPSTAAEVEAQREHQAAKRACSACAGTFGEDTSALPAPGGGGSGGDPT
Procedure: For the preparation of human recombinant PDEs of interest, the Bac-To-Bac baculoviral expression system from Invitrogen (Carlsbad, CA, United States) was used according to the instruction manual. […] The plasmids were transformed into DH10Bac bacteria, SF9 insect cells were transfected with the bacmid DNA, and the resulting baculoviruses were stored and used for further rounds of infections. For protein production, SF9 cells were infected until a cytopathic effect was visible (after about 72 h), the SF9 cells were harvested and broken up by 3 freeze/thaw cycles, and by shearing 10 times through a 0.1 mm cannula using a syringe. […] The Phosphodiesterase Scintillation Proximity Assays (TRKQ7090 for [^3H]cAMP, GE Healthcare Europe GmbH, Chalfont St Giles, United Kingdom, and TRKQ7100 for [^3H]cGMP, Perkin Elmer, Waltham, MA, United States) were performed essentially according to the instruction manual. […] Assay solutions containing recombinant baculoviral-expressed PDE (to give an activity of 5.000–20.000 cpm corresponding to 5–20% of total activity added), 50 mmol/L Tris/HCl pH 7.5, 8.3 mmol/L MgCl2, 1.7 mmol/L EGTA, and 10 µL radiolabeled substrate (0.05 µCi in H2O) were incubated for 1 h at 30°C (final volume 100 μL).

PDE3A = target: T2, PDE3A (Homo sapiens, UniProt Q14432); assay: Recombinant PDE activity, scintillation proximity assay: PDE3A; assay type: biochemical; settings: calculated IC50
T2 construct: made in house; host or cells: SF9 insect cells (baculovirus, Bac-To-Bac, pFastbac)
T2 sequence (Q14432 whole entry): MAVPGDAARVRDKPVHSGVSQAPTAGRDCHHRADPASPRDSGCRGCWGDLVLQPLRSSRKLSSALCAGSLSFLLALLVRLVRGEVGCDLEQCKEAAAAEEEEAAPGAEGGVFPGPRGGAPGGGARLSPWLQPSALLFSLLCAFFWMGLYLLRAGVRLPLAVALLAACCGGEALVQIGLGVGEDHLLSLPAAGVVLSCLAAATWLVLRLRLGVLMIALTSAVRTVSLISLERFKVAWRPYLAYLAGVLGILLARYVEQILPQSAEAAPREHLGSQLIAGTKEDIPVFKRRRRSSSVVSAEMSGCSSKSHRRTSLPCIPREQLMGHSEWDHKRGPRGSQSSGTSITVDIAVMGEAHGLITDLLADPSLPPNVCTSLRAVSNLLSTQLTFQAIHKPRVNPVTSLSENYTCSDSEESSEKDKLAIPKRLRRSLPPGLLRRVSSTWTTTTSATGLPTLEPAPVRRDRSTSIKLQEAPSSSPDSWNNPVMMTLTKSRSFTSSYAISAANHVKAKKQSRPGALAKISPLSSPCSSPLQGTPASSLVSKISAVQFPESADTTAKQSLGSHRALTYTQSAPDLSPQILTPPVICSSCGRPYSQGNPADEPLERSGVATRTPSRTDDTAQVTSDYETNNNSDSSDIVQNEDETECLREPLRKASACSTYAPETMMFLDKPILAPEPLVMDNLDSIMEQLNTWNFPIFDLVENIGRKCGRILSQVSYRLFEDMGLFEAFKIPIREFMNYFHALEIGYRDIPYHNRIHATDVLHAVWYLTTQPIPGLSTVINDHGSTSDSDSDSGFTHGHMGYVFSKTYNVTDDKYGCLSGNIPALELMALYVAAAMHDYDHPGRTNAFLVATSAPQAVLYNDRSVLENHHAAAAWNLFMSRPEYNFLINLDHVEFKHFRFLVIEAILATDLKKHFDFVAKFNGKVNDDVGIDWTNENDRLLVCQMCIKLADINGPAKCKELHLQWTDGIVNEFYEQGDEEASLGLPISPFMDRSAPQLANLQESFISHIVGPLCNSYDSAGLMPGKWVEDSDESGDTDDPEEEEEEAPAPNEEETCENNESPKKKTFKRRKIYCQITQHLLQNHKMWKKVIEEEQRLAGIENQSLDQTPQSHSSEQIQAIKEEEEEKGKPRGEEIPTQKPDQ
Text: (§1) For the preparation of human recombinant PDEs of interest, the Bac-To-Bac baculoviral expression system from Invitrogen (Carlsbad, CA, United States) was used according to the instruction manual. In short, the full-length open reading frames of PDE1C (National Center for Biotechnology Information Gene-Ref-Seq identifier NG_051183), PDE3A (NG_030033), PDE4A (NG_029594, AA 156–886), PDE4C (NG_029629), PDE7A (NG_029614), and PDE9A (NG_047067) were cloned into the plasmid vector pFastbac. For PDE4B and PDE4D, active site fragments were used (PDE4B NG_029038: AA 152–484, PDE4D NG_027957, AA 79–438). The plasmids were transformed into DH10Bac bacteria, SF9 insect cells were transfected with the bacmid DNA, and the resulting baculoviruses were stored and used for further rounds of infections. […] The protein content was measured and an equal volume of 87% (v/v) glycerol was added prior to freezing at −20°C. […] The reaction was stopped by addition of 50 µL of yttrium silicate scintillation proximity assay beads (17.8 mg/mL, 18 mM zinc sulfate in H2O) and the amount of produced [^3H]AMP/[^3H]GMP associated was determined using a Wallac Microbeta scintillation counter. […]

PDE1C = target: T3, PDE1C (Homo sapiens, UniProt Q14123); assay: Recombinant PDE activity, scintillation proximity assay: PDE1C; assay type: biochemical
T3 construct: the full-length open reading frames of PDE1C; made in house; host or cells: SF9 insect cells (baculovirus, Bac-To-Bac, pFastbac)
T3 sequence (Q14123 whole entry): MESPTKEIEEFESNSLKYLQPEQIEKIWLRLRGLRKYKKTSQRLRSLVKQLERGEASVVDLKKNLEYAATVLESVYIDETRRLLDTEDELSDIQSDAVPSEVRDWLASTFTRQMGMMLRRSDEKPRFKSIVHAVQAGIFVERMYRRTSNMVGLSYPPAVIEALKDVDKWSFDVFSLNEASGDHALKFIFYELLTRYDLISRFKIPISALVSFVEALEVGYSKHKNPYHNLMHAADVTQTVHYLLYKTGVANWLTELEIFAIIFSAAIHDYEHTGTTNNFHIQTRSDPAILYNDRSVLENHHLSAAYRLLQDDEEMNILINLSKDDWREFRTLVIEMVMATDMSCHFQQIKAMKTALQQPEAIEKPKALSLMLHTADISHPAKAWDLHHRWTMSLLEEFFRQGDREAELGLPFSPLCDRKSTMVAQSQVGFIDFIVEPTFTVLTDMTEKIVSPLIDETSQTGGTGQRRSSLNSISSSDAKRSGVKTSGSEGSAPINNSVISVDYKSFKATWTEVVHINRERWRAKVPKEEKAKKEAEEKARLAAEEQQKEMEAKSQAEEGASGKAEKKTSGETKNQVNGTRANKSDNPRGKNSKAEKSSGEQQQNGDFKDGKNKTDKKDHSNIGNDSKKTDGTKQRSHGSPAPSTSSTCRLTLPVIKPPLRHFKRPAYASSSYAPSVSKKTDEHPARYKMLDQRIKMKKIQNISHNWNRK
Text: as §1

PDE5 = target: T4, PDE5 (Homo sapiens, UniProt O76074); assay: PDE5 inhibition screen at Eurofins Cerep; assay type: biochemical; settings: screened at Eurofins Cerep
T4 construct: Eurofins Cerep

PDE6 = PDE6 inhibition screen at Eurofins Cerep; assay type: biochemical, bovine; settings: screened at Eurofins Cerep
[1] = tested on: silica-induced lung fibrosis; assay: Silica-induced lung inflammation and fibrosis in the mouse; assay type: in vivo; settings: mice
Procedure: BI 1015550 was given at doses of 0.25, 0.75, and 2.5 mg/kg b.i.d. in Natrosol 0.5% (10 mL/kg) starting from day 10 after silica instillation until day 30 (therapeutic regimen). 8-week-old BL6 mice (mixed sex, Janvier Labs, Le Genest-Saint-Isle, France) were used. Details of the experimental methods are described elsewhere ([Lo Re et al., 2010]). Briefly, mice received silica particles at 2.5 mg/mouse by intranasal instillation. Control mice received the respective saline solution by intranasal instillation. Mice were killed 30 days after silica administration and macroscopic changes were recorded at post-mortem analysis. Lung weight was measured, BALF for total cell and differential cell counts as well as myeloperoxidase (MPO) activity and keratinocyte-derived cytokine (KC, the counterpart of human GRO protein) determination was generated, and lung histology (staining with HE and chromotrope-aniline blue with semi-quantitative analysis for the estimation of inflammation, granuloma, and fibrosis scores was done.

[2] = 0.25 mg/kg b.i.d. oral day 10–30
[3] = 0.75 mg/kg b.i.d. oral day 10–30
[4] = 2.5 mg/kg b.i.d. oral day 10–30

Q: What does the source list for `[O-][S+]1CCc2nc(N3CCC(c4ncc(Cl)cn4)CC3)nc(NC3(CO)CCC3)c21` (stereo not drawn) [BI 1015550]?
A: IC50 (PDE4A): 0.248 µM; IC50 (PDE3A): 120 µM; IC50 (PDE1C; substrate cAMP): 46 µM; IC50 (PDE1C; substrate cGMP): 85 µM; Inhibition of human PDE5 (PDE5): did not inhibit; Inhibition of bovine PDE6 (PDE6): did not inhibit; Fibrosis score, % change related to control animals [1, 2]: 5%; Granuloma score, % change related to control animals [1, 2]: –16%; Inflammation score, % change related to control animals [1, 2]: –4%; KC in BALF, % change related to control animals [1, 2]: 4%; Lung weight, % change related to control animals [1, 2]: –57%; Lymphocytes in BALF, % change related to control animals [1, 2]: –18%; MPO in BALF, % change related to control animals [1, 2]: –2%; Macrophages in BALF, % change related to control animals [1, 2]: –29%; Neutrophils in BALF, % change related to control animals [1, 2]: –35%; Total cells in BALF, % change related to control animals [1, 2]: –27%; Fibrosis score, % change related to control animals [1, 3]: –10%; Granuloma score, % change related to control animals [1, 3]: –11%; Inflammation score, % change related to control animals [1, 3]: 4%; KC in BALF, % change related to control animals [1, 3]: –39%; Lung weight, % change related to control animals [1, 3]: –46%; Lymphocytes in BALF, % change related to control animals [1, 3]: 49%; MPO in BALF, % change related to control animals [1, 3]: –22%; Macrophages in BALF, % change related to control animals [1, 3]: –11%; Neutrophils in BALF, % change related to control animals [1, 3]: 8%; Total cells in BALF, % change related to control animals [1, 3]: –13%; Fibrosis score, % change related to control animals [1, 4]: –15%; Granuloma score, % change related to control animals [1, 4]: –32%; Inflammation score, % change related to control animals [1, 4]: –19%; KC in BALF, % change related to control animals [1, 4]: –27%; Lung weight, % change related to control animals [1, 4]: –46%; Lymphocytes in BALF, % change related to control animals [1, 4]: –12%; MPO in BALF, % change related to control animals [1, 4]: –34%; Macrophages in BALF, % change related to control animals [1, 4]: –38* %; Neutrophils in BALF, % change related to control animals [1, 4]: –46* %; Total cells in BALF, % change related to control animals [1, 4]: –28%
